In patent publication US20250367209A1 (SOUTHERN RESEARCH INSTITUTE, priority 2022, published 2025):

target: Tau-FynSH3 interaction (Homo sapiens (Human), UniProt P10636); experiment: Tau-FynSH3 AlphaScreen; format: binding; details: not given
Description: Human Fyn-SH3 domain with GST-tag at the N-terminus and a Strep-tag II ([…]) at the C-terminus (GST-Fyn-SH3-Strep) was cloned into pPR-IBA1 vector (IBA Lifesciences) (Cochran, et al. (2014) J. Biomol. Screen. 19, 1338-1349). Codon-optimized human 4R2N Tau for E. coli expression with a Strep-tag II at the C-terminus (His-Tau-Strep) was cloned into pET-28a(+) vector (Novagen). The constructs were transformed into E. coli BL-21(DE3) competent cells (Novagen). For GST-Fyn-SH3-Strep purification, a single colony was inoculated in Luria-Bertani (LB) broth at 37° C. overnight. 10 mL cell culture was added into 500 mL LB medium and cultured at 37° C. 0.5 mM Isopropyl β-D-1-thiogalactopyranoside (IPTG) was added into the culture when OD600 reached 0.7. Cells were further cultured at 25° C. for 4 hours and harvested. Cell pellet was resuspended in lysis buffer (20 mM Tris pH 7.9, 300 mM NaCl, 1 mM TCEP) with 1 tablet of EDTA-free protease inhibitors (ThermoFisher) and 1 mg/ml lysozyme. Cells were disrupted by sonication and debris was removed by centrifugation at 9500 rpm for 1 hour. Supernatant was loaded onto a glutathione-sepharose column (Cytiva). The column was washed in lysis buffer and protein eluted in lysis buffer containing 25 mM reduced glutathione. For His-Tau-Strep protein purification, cells were inoculated in LB broth medium and cultured at 37° C. overnight. A 10 mL overnight culture was added to 500 mL of auto-induction medium (Studier, F. W. (2005) Protein Expr Purif 41, 207-34) and cells were cultured at 37° C. for about 5 hours. The temperature was lowered to 18° C., and cells were cultured overnight. Cells were harvested and resuspended in lysis buffer with 20 mM imidazole, protease inhibitors, and lysozyme. Cells were disrupted by sonication and cell pellets were spun down at 9500 rpm for 1 hour. Supernatant was loaded onto Ni-NTA column (Cytiva) and the column was washed in lysis buffer with 20 mM imidazole. His-Tau-Strep protein was eluted in lysis buffer containing 400 mM imidazole. Both eluted GST-Fyn-SH3-Strep and His-Tau-Strep protein solutions were passed through G-25 desalting column (Cytiva) with lysis buffer and loaded onto high capacity Strep-Tactin column (IBA Lifesciences). The columns were washed in Buffer W (IBA Life sciences) and proteins were eluted in Buffer E (IBA life sciences). The eluted proteins were passed through G-25 desalting column again. Both GST-Fyn-Strep and His-Tau-Strep proteins were concentrated and diluted 1:1 in ethylene glycol as a cryoprotectant for storage at −80° C.
AlphaScreen was conducted with 10 µg/mL of glutathione donor beads (PerkinElmer, Waltham, MA) and nickel chelate acceptor beads (PerkinElmer) in 10 mM Bis-Tris (pH 7.0), 1 mM TCEP, 0.02% casein, and 0.1% Tween-20. Compounds were plated first followed by addition of one the proteins at 600 nM and incubation for 30 min. The second protein was added and incubated for 30 mn, then the beads were added simultaneously and the final mixture was incubated for 2 hours. Experiments were conducted in 384-well plates (6007290; PerkinElmer) and results were read on a PHERAstar plate reader (BMG Labtech, Cary, NC).
˜50,000 compounds from the Enamine and Southern Research libraries were screened to identify Tau-FynSH3 interaction inhibitors using an AlphaScreen assay (Cochran, et al. (2014) J. Biomol. Screen. 19, 1338-1349). Compounds that were >3 standard deviations above mean inhibition were selected, yielding 1,852 hits (FIG. 1A). […]. These 39 compounds were tested in a live-cell BRET assay to measure Tau-Fyn interaction in cells. […]. Screen. 19, 1338-1349).

Chain of Tau-FynSH3 interaction (P10636 other isoform, or with tags, fused parts or gaps): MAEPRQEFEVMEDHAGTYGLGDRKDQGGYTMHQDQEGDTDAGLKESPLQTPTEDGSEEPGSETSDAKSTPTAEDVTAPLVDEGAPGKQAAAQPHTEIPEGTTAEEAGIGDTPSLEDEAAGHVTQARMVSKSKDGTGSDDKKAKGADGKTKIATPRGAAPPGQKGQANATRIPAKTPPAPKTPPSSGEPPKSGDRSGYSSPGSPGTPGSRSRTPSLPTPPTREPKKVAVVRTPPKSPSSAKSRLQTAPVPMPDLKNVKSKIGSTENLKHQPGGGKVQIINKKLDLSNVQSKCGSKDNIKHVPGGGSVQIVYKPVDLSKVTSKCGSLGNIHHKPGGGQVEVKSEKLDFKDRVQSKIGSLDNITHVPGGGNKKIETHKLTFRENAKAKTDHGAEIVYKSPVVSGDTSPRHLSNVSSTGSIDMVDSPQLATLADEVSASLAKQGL

Row | SMILES | AlphaScreen activity (in words)
1 | O=C(CN1CCSc2ccccc21)Nc1ncc(-c2ccccn2)o1 [compound 68] | lost activity

same assay, conditions: Table 2; Tau-FynSH3 inhibitory activity in the AlphaScreen; read-out: IC50

Row | SMILES | IC50
2 | O=C(CCN1C(=O)COc2ccccc21)Nc1nnc(-c2ccccn2)[nH]1 [compound 43, 3-(3-Oxo-2,3-DIHYDRO-4H-BENZO[B][1,4]OXAZIN-4-YL)-N-(5-(PYRIDIN-2-YL)-4H-1,2,4-TRIAZOL-3-YL)PROPANAMIDE] | > 100000 nM
3 | O=C(CCN1C(=O)CCc2ccccc21)Nc1nnc(-c2ccccn2)[nH]1 [compound no. 3, 3-(2-Oxo-3,4-DIHYDROQUINOLIN-1(2H)-YL)-N-(5-(PYRIDIN-2-YL)-4H-1,2,4-TRIAZOL-3-YL)PROPANAMIDE] | > 100000 nM
4 | O=C(CN1CCSc2ccccc21)Nc1ncc(-c2ccccn2)o1 [compound 68] | > 100000 nM

same assay, conditions: Table 3

Row | SMILES | Alpha screen IC50 (μM)
5 | O=C(CCN1C(=O)CSc2ccccc21)Nc1ccc(-c2ccccc2)cc1 [compound 39, N-([1,1′-BIPHENYL]-4-YL)-3-(3-Oxo-2,3-DIHYDRO-4H-BENZO[B][1,4]THIAZIN-4-YL)PROPANAMIDE] | Inactive
6 | O=C(CN1C(=O)CSc2ccccc21)Nc1cccc(C(=O)N2CCOCC2)c1 [compound 44, N-(3-(MORPHOLINE-4-CARBONYL)PHENYL)-2-(3-OXO-2,3-DIHYDRO-4H-BENZO[B][1,4]THIAZIN-4-YL)ACETAMIDE] | Inactive
7 | O=C(CCN1C(=O)CSc2ccccc21)Nc1ccc(-c2ncc[nH]2)cc1 [compound 41, N-(4-(1H-IMIDAZOL-2-YL)PHENYL)-3-(3-Oxo-2,3-DIHYDRO-4H-BENZO[B][1,4]THIAZIN-4-YL)PROPANAMIDE] | Inactive
8 | O=C(CCN1C(=O)CSc2ccccc21)Nc1ccccc1C(F)(F)F [compound 36, 3-(3-OXO-2,3-DIHYDRO-4H-BENZO[B][1,4]THIAZIN-4-YL)-N-(2-(TRIFLUOROMETHYL)PHENYL) PROPANAMIDE] | Inactive
9 | O=C1CCc2ccccc2N1Cc1nnc(-c2ccccn2)[nH]1 [compound 29, 1-((5-(PYRIDIN-2-YL)-4H-1,2,4-TRIAZOL-3-YL)METHYL)-3,4-DIHYDROQUINOLIN-2(1H)-ONE] | Inactive
10 | O=C(CCN1C(=O)CSc2ccccc21)Nc1ccc(-c2ccccn2)cc1 [compound 38, 3-(3-Oxo-2,3-DIHYDRO-4H-BENZO[B][1,4]THIAZIN-4-YL)-N-(4-(PYRIDIN-2-YL)PHENYL)PROPANAMIDE] | Inactive
11 | O=C(CCN1C(=O)CSc2ccccc21)Nc1ccc(-c2cncnc2)cc1 [compound 42, 3-(3-OXO-2,3-DIHYDRO-4H-BENZO[B][1,4]THIAZIN-4-YL)-N-(4-(PYRIMIDIN-5-YL)PHENYL) PROPANAMIDE] | Inactive
12 | O=C1COc2ccccc2N1Cc1nnc(-c2ccccn2)[nH]1 [compound 28, 4-((5-(PYRIDIN-2-YL)-4H-1,2,4-TRIAZOL-3-YL)METHYL)-2H-BENZO[B][1,4]OXAZIN-3(4H)-ONE] | Inactive

More lines, now with the values ahead:

Row | Alpha screen IC50 (μM) | SMILES
13 | Inactive | O=C(CCN1C(=O)COc2ccccc21)Nc1nnc(-c2ccccn2)[nH]1 [compound 43, 3-(3-Oxo-2,3-DIHYDRO-4H-BENZO[B][1,4]OXAZIN-4-YL)-N-(5-(PYRIDIN-2-YL)-4H-1,2,4-TRIAZOL-3-YL)PROPANAMIDE]
14 | Inactive | O=C(CN1C(=O)CSc2ccccc21)Nc1nnc(-c2cccnc2)[nH]1 [compound 24, 2-(3-OXO-2,3-DIHYDRO-4H-BENZO[B][1,4]THIAZIN-4-YL)-N-(5-(PYRIDIN-3-YL)-4H-1,2,4-TRIAZOL-3-YL)ACETAMIDE]
15 | Inactive | O=C(CCN1C(=O)CSc2ccccc21)Nc1nnn[nH]1 [compound 40, 3-(3-OXO-2,3-DIHYDRO-4H-BENZO[B][1,4]THIAZIN-4-YL)-N-(1H-TETRAZOL-5-YL)PROPANAMIDE]
16 | Inactive | O=C(CN1C(=O)CSc2ccccc21)Nc1nnc(-c2ccncc2)[nH]1 [compound 25, 2-(3-Oxo-2,3-DIHYDRO-4H-BENZO[B][1,4]THIAZIN-4-YL)-N-(5-(PYRIDIN-4-YL)-4H-1,2,4-TRIAZOL-3-YL)ACETAMIDE]

same assay, conditions: Table 3; read-out: Alpha screen IC50

Row | SMILES | IC50
17 | COc1ccc2c(c1)N(CC(=O)Nc1nnc(-c3ccccn3)[nH]1)C(=O)CC2 [compound 50, 2-(7-METHOXY-2-OXO-3,4-DIHYDROQUINOLIN-1(2H)-YL)-N-(5-(PYRIDIN-2-YL)-4H-1,2,4-TRIAZOL-3-YL)ACETAMIDE] | 1600 nM
18 | O=c1sc2ccccc2n1Cc1nnc(-c2ccccn2)[nH]1 [compound 30, 3-((5-(PYRIDIN-2-YL)-4H-1,2,4-TRIAZOL-3-YL)METHYL)BENZO[D]THIAZOL-2(3H)-ONE] | 10600 nM
19 | COc1ccc2c(c1)N(CC(=O)Nc1nnc(-c3ccccn3)[nH]1)C(=O)CO2 [compound 49, 2-(6-METHOXY-3-OXO-2,3-DIHYDRO-4H-BENZO[B][1,4]OXAZIN-4-YL)-N-(5-(PYRIDIN-2-YL)-4H-1,2,4-TRIAZOL-3-YL)ACETAMIDE] | 1600 nM

More lines, now with the values ahead:

Row | IC50 | SMILES
20 | 3450 nM | O=C(CCN1C(=O)CSc2cc(C(F)(F)F)ccc21)Nc1nnc(-c2ccccn2)[nH]1 [compound 11, 3-(3-Oxo-7-(TRIFLUOROMETHYL)-2H-BENZO[B][1,4]THIAZIN-4(3H)-YL)-N-(5-(PYRIDIN-2-YL)-4H-1,2,4-TRIAZOL-3-YL)PROPANAMIDE]
21 | 6780 nM | O=C(CCN1C(=O)CSc2ccc(Cl)cc21)Nc1nnc(-c2ccccn2)[nH]1 [compound 10, 3-(6-CHLORO-3-OXO-2H-BENZO[B][1,4]THIAZIN-4(3H)-YL)-N-(5-(PYRIDIN-2-YL)-4H-1,2,4-TRIAZOL-3-YL)PROPANAMIDE]
22 | 5420 nM | O=C(CN1C(=O)CSc2cc(C(F)(F)F)ccc21)Nc1nnc(-c2ccccn2)[nH]1 [compound 17, 2-(3-OXO-7-(TRIFLUOROMETHYL)-2H-BENZO[B][1,4]THIAZIN-4(3H)-YL)-N-(5-(PYRIDIN-2-YL)-4H-1,2,4-TRIAZOL-3-YL)ACETAMIDE]
23 | 1600 nM | O=C(CN1C(=O)CCc2cc(F)ccc21)Nc1nnc(-c2ccccn2)[nH]1 [compound 51, 2-(6-FLUORO-2-OXO-3,4-DIHYDROQUINOLIN-1(2H)-YL)-N-(5-(PYRIDIN-2-YL)-4H-1,2,4-TRIAZOL-3-YL)ACETAMIDE]
24 | 1200 nM | O=C(CN1C(=O)CCc2cc(Cl)ccc21)Nc1nnc(-c2ccccn2)[nH]1 [compound 48, 2-(6-CHLORO-2-OXO-3,4-DIHYDROQUINOLIN-1(2H)-YL)-N-(5-(PYRIDIN-2-YL)-4H-1,2,4-TRIAZOL-3-YL)ACETAMIDE]
25 | 1600 nM | O=C(CN1C(=O)COc2cc(Cl)ccc21)Nc1nnc(-c2ccccn2)[nH]1 [compound 52, 2-(7-CHLORO-3-OXO-2,3-DIHYDRO-4H-BENZO[B][1,4]OXAZIN-4-YL)-N-(5-(PYRIDIN-2-YL)-4H-1,2,4-TRIAZOL-3-YL)ACETAMIDE]
26 | 1400 nM | Cc1ccc2c(c1)CCC(=O)N2CC(=O)Nc1nnc(-c2ccccn2)[nH]1 [compound 54, 2-(6-METHYL-2-OXO-3,4-DIHYDROQUINOLIN-1(2H)-YL)-N-(5-(PYRIDIN-2-YL)-4H-1,2,4-TRIAZOL-3-YL)ACETAMIDE]
27 | 3240 nM | O=C(CCN1C(=O)CSc2ccccc21)Nc1ncc(-c2ccccn2)[nH]1 [compound no. 5, 3-(3-Oxo-2H-BENZO[B][1,4]THIAZIN-4(3H)-YL)-N-(5-(PYRIDIN-2-YL)-1H-IMIDAZOL-2-YL)PROPANAMIDE]

same assay, conditions: compared to compound no. 20

Row | SMILES | lower / reduced AlphaScreen activity
28 | O=C(CN1CCOCC1)Nc1nnc(-c2ccccn2)[nH]1 [compound 66] | 8-10 fold
29 | O=C(CN1CCCCC1)Nc1nnc(-c2ccccn2)[nH]1 [compound 65] | 8-10 fold

same assay, conditions: compared to compound no. 55

Row | SMILES | improvement in activity in the Tau-FynSH3 AlphaScreen
30 | O=C(CN1C(=O)CSc2ccccc21)Nc1nnc(-c2ccccn2)[nH]1 [compound no. 56] | five-fold improvement in activity

same assay, conditions: read-out: IC50 in the Tau-FynSH3 AlphaScreen

Row | SMILES | IC50
31 | O=C(CN1C(=O)CSc2ccccc21)Nc1nnc(-c2ccccn2)[nH]1 [compound no. 56] | 840 nM
